Measurements as given in patent US9499550B2 (BRISTOL-MYERS SQUIBB COMPANY, priority 2012, dated 2016).
Read-outs that look alike come from different tables or passages of the source.

Columns and labels:
[1] = system: HCV genotype 1b (Con1) replicon in HUH-7 cells; assay: HCV replicon luciferase reporter assay, genotype 1b; type: cell-based; details: Hepatitis C virus, Huh-7, 72 h, HCV genotype 1b replicon luciferase, 3 days incubation, read-out: LE_1b (EC50, range)
Summary of the method: (§1)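 Replicon inhibition for both genotypes was measured as Renilla luciferase signal (EnduRen, 7.5 μM final, 2 h) after 3-day, 37° C exposure of replicon-bearing HUH-7 cells in 4% FCS DMEM, 0.5% DMSO. The 1b construct carries S1179I; the 1a H77 construct carries P1496L and S2204I. Twenty-point, 3-fold dilutions were fitted four-parametrically for EC50, and CC50 was taken from multiplexed Cell Titer-Blue.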

[2] = system: HCV genotype 1a (H77 strain) replicon in HUH-7 cells; assay: HCV replicon luciferase reporter assay, genotype 1a; type: cell-based; details: Hepatitis C virus, Huh-7, 72 h, HCV genotype 1a replicon luciferase, 3 days incubation, read-out: LE_1a (EC50, range)
Summary of the method: as §1

Compound	EC50 [1]	EC50 [2]	EC50 ([1]; GETYPE1B)	EC50 ([2]; GETYPE1A)
COc1cc2ccnc(O[C@@H]3C[C@H]4C(=O)N[C@]5(C(=O)NS(=O)(=O)C6(CF)CC6)C[C@H]5/C=C\CC[C@@H](C)C[C@@H](C)[C@H](NC(=O)c5ccccc5C(F)(F)F)C(=O)N4C3)c2cc1F [Compound 4096, (2R,6S,7R,9R,13aS,14aR,16aS,Z)-2-(7-fluoro-6-methoxyisoquinolin-1-yloxy)-N-(1-(fluoromethyl)cyclopropylsulfonyl)-7,9-dimethyl-5,16-dioxo-6-(2-(trifluoromethyl)benzamido)-1,2,3,5,6,7,8,9,10,11,13a,14,14a,15,16,16a-hexadecahydrocyclopropa[e]pyrrolo[1,2-a][1,4]diazacyclopentadecine-14a-carboxamide]	< 5.46 nM	< 5.46 nM	–	–
COc1cc2ccnc(O[C@@H]3C[C@H]4C(=O)N[C@]5(C(=O)NS(=O)(=O)C6(CF)CC6)C[C@H]5/C=C\CC[C@@H](C)C[C@@H](C)[C@H](NC(=O)c5ccc(F)cc5F)C(=O)N4C3)c2cc1F [Compound 4097, (2R,6S,7R,9R,13aS,14aR,16aS,Z)-6-(2,4-difluorobenzamido)-2-(7-fluoro-6-methoxyisoquinolin-1-yloxy)-N-(1-(fluoromethyl)cyclopropylsulfonyl)-7,9-dimethyl-5,16-dioxo-1,2,3,5,6,7,8,9,10,11,13a,14,14a,15,16,16a-hexadecahydrocyclopropa[e]pyrrolo[1,2-a][1,4]diazacyclopentadecine-14a-carboxamide]	< 5.46 nM	< 5.46 nM	–	–
C[C@@H]1CC/C=C\[C@@H]2C[C@@]2(C(=O)NS(=O)(=O)C2(C)CC2)NC(=O)[C@@H]2C[C@@H](Oc3cnc4cc(F)ccc4n3)CN2C(=O)[C@@H](NC(=O)OC(C)(C)C(F)(F)F)[C@H](C)C1 [Compound 4099]	–	–	< 5.46 nM	< 5.46 nM
CC[C@@H]1C[C@H](C)CC/C=C\[C@@H]2C[C@@]2(C(=O)NS(=O)(=O)C2(C)CC2)NC(=O)[C@@H]2C[C@@H](Oc3cnc4ccc(OC)cc4c3)CN2C(=O)[C@H]1NC(=O)OC(C)(C)C(F)(F)F [Compound 4100]	–	–	< 5.46 nM	< 5.46 nM
COc1cc2c(N3CCOCC3)cnc(O[C@@H]3C[C@H]4C(=O)N[C@]5(C(=O)NS(=O)(=O)C6(C)CC6)C[C@H]5/C=C\CC[C@@H](C)C[C@@H](C)[C@H](NC(=O)OC(C)(C)C(F)(F)F)C(=O)N4C3)c2cc1F [Compound 4101]	–	–	< 5.46 nM	< 5.46 nM
C[C@@H]1CC/C=C\[C@@H]2C[C@@]2(C(=O)NS(=O)(=O)C2(C)CC2)NC(=O)[C@@H]2C[C@@H](Oc3ncc(O)c4ccccc34)CN2C(=O)[C@@H](NC(=O)OC(C)(C)C(F)(F)F)[C@H](C)C1 [Compound 4103]	–	–	4.82 to 103 nM	4.82 to 103 nM
CCOc1cnc(O[C@@H]2C[C@H]3C(=O)N[C@]4(C(=O)NS(=O)(=O)C5(CF)CC5)C[C@H]4/C=C\CC[C@@H](C)C[C@@H](C)[C@H](NC(=O)OC(C)(C)C(F)(F)F)C(=O)N3C2)c2ccc(OC)cc12 [Compound 4104]	–	–	< 5.46 nM	< 5.46 nM
CCOc1cnc(O[C@@H]2C[C@H]3C(=O)N[C@]4(C(=O)NS(=O)(=O)C5(CF)CC5)C[C@H]4/C=C\CC[C@@H](C)C[C@@H](C)[C@H](NC(=O)OC(C)(C)C)C(=O)N3C2)c2ccc(OC)cc12 [Compound 4105, tert-butyl (2R,6S,7R,9R,13aS,14aR,16aS,Z)-2-(4-ethoxy-6-methoxyisoquinolin-1-yloxy)-14a-(1-(fluoromethyl)cyclopropylsulfonylcarbamoyl)-7,9-dimethyl-5,16-dioxo-1,2,3,5,6,7,8,9,10,11,13a,14,14a,15,16,16a-hexadecahydrocyclopropa[e]pyrrolo[1,2-a][1,4]diazacyclopentadecin-6-ylcarbamate]	< 5.46 nM	< 5.46 nM	–	–
COc1ccc2c(O[C@@H]3C[C@H]4C(=O)N[C@]5(C(=O)NS(=O)(=O)C6(C)CC6)C[C@H]5/C=C\CC[C@@H](C)C[C@@H](C)[C@H](NC(=O)OC(C)(C)C(F)(F)F)C(=O)N4C3)ncc(OC(=O)OC(C)(C)C(F)(F)F)c2c1 [Compound 4106]	–	–	4.82 to 103 nM	4.82 to 103 nM
